Data reported in patent US9155784B2, “Anti-TNF-α therapy for the mucopolysaccharidoses and other lysosomal disorders” (Icahn School of Medicine at Mount Sinai, priority 2011, dated 2015).

Legend:
Format in all cases: in vivo, rat
[1] = test system: ceramide; assay: Trachea ceramide immunohistochemistry, MPS VI rats; conditions: 37 weeks of age
Description: Tracheas from 37-week-old normal, untreated MPS VI and treated MPS VI rats were fixed, embedded, sectioned, and prepared as described above. Sections were incubated overnight with primary mouse monoclonal anti-ceramide antibody (MID 15B4, Alexis Corporation) and visualization was accomplished using a fluorescent secondary antibody, donkey anti-goat IgG-Cy-3 (711-165-152, Jackson Laboratory). Slides were visualized and photographed with a confocal laser-scanning microscope (Carl Zeiss 510 Meta).

[2] = test system: TNF-α and RANKL; assay: Serum immunoassays of TNF-α and RANKL in treated MPS VI rats; conditions: MPS VI rats treated 8 months i.v., end of study (37 weeks), vs untreated MPS VI
Description: Naglazyme® (recombinant human N-acetylgalactosamine-4-sulfatase) was obtained from the BioMarin Pharmaceutical Inc., and CNTO1081 was from Centocor Ortho Biotech Inc. Twenty one-day-old (pre-symptomatic) MPS VI rats were divided into two groups (n=8/group), and subjected to either ERT or combined ERT/anti-TNF-α therapy. Animals receiving ERT alone were injected i.v. (tail vein) weekly with 1 mg/kg of Naglazyme®. Those receiving combined therapy also were injected i.v. with 3 mg/kg of CNTO10181 twice per week (every third day). Treatment was carried out for a total of 32 weeks. Serum was collected every 2 weeks for TNF-α and RANKL analysis (see infra). For each group, the treated animals were sacrificed 2 weeks after the last injection (37 weeks of age). Age-matched normal and untreated MPS VI rats were used as controls throughout the study.
Serum TNF-α and RANKL in age-matched normal, untreated and treated MPS VI rats were assessed by immunoassays using rat ultrasensitive Biosource Elisa kits (Invitrogen and ALPCO Diagnostics) according to the manufacturers' protocols. All assays were performed in triplicate.
Twenty one-day-old MPS VI rats were treated by either ERT (1 mg/kg once per week), or by a combined protocol of ERT and anti-TNF-α therapy (3 mg/kg, twice per week). Both were administered intravenously (tail vein). […]

[3] = test system: articular chondrocytes; assay: Immunoblot of articular chondrocytes from treated MPS VI rats; conditions: western blot, vs untreated MPS VI
Excerpt: Tracheas, femora, and tibias were collected from the control and treated MPS VI rats, and placed in either phosphate buffered saline for the isolation of fibroblast-like synoviocytes (FLS) and articular chondrocytes, or fixed in neutral buffered 10% formalin (Sigma Chemical) for histology, microCT analysis, and immunohistochemistry (see infra). The fixed bones were decalcified in 8% formic acid (Sigma Chemical) for 5 days, paraffin embedded, and sectioned (5 μm) for subsequent staining Primary FLS and articular chondrocyte cultures were established as previously described (Simonaro et al., “Joint and Bone Disease in Mucopolysaccharidosis VI and VII: Identification of New Therapeutic Targets and Biomarkers Using Animal Models,” Pediatr. Res. 57:701-707 (2005); Simonaro et al., “Mechanism of Glycosaminoglycan-Mediated Bone & Joint Disease: Implications for the Mucopolysaccharidoses & Other Connective Tissue Diseases,” Amer. J. Path. 172:112-122 (2008), both of which are hereby incorporated by reference in their entirety), and expression of inflammatory and apoptosis markers were assessed by western blotting.
Articular chondrocytes from 37-week-old normal, untreated and treated MPS VI rats were collected using sequential enzyme digestion of cartilage, pelleted and lysed for immunoblot analysis as previously described (Simonaro et al., “Mechanism of Glycosaminoglycan-Mediated Bone & Joint Disease: Implications for the Mucopolysaccharidoses & Other Connective Tissue Diseases,” Amer. J. Path. 172:112-122 (2008), which is hereby incorporated by reference in its entirety). The membranes were incubated with rabbit polyclonal anti-collagen type IIA1 (sc-8784-R, Santa Cruz Biotechnology), rabbit polyclonal anti-collagen type X (AB58632, Abcam), rabbit polyclonal anti-ADAMTS5 (sc-28887, Santa Cruz Biotechnology), rabbit polyclonal anti-PARP (sc-7150, Santa Cruz Biotechnology), and rabbit polyclonal anti-GAPDH (sc-25778, Santa Cruz Biotechnology), as a loading control. The bound antibodies were recognized by secondary antibodies conjugated to HRP (NA934V), GE Healthcare). […]

## recombinant human N-acetylgalactosamine-4-sulfatase [ERT]
[1]
  ceramide staining in tracheal epithelial cells: strong ceramide staining
[2]
  serum RANKL level: significantly reduced
  serum TNF-α level: significantly reduced
[3]
  ADAMTS5 expression in articular chondrocytes: reduced
  PARP (apoptosis marker) expression in articular chondrocytes: only reduced by the combined treatment protocol
  collagen X expression in articular chondrocytes: increased
